Assay results published in patent publication EP1007066B1, “SCREENING METHODS FOR GLUCOCORTICOID RECEPTOR BINDING SUBSTANCES USING TRYPTERYGIUM WILFORDII PREPARATIONS” (priority 1996, dated 1998).
Values after ≈ are worked out from the molar mass of the structure shown.

What was measured:
IL-2 = assay: PHA-induced IL-2 production (wilforonide, CTLL-2 readout); assay type: cell-based; conditions: PHA 1 µg/ml, overnight
Method: The effects of wilforonide on IL-2 production was also examined. T cells were cultured with or without PHA(1 microgram/ml) in the presence or absence of 0 (control), 10 ng/ml, 50 ng/ml, 100 ng/ml or 200 ng/ml wilforonide overnight. Cell-free supernatants were diluted 1 to 80 and the IL-2 content assayed with CTLL-2 cells.

IL-2R = IL-2R expression by PHA-activated T cells (924); assay type: cell-based; conditions: 500 ng/ml
Text: There was no effect of "924" on IL-2R expression by PHA-activated T cells.

PHA-stimulated T cells [1] = assay: Viability of PHA-stimulated T cells (924); assay type: cell-based
Method: A 924 fraction concentration of 1,000 ng/ml was only slightly more toxic to cell viability as compared to the 0 ng/ml dose (see FIG. 20D, 0 ng/ml = 22% of control; 1,000 ng/ml fraction 924 = […] of control cell viability).

PHA-stimulated T cells [2] = assay: PHA-induced T cell proliferation (924 / wilforonide); assay type: cell-based; conditions: PHA 0.5 µg/ml, 3 days
Text: The molecular groups responsible for the immune suppressive function of these compounds are unknown, however, the core structure of diterpenoids which may be related to their activity consists of an α-β-unsaturated 5 element lactone which can be identified by Kedde reagents. HPLC was used to fractionate the ethyl acetate extract of TwHF and the Kedde reagents were employed to trace the fractions. Then, the effect of selected fractions on the in vitro IL-2 production and [^3H]-thymidine incorporation by PHA-activated T cells was determined. Fractions that inhibit these T cell functions were selected and the chromatographic pattern was identified with HPLC. One fraction was further purified with HPLC and crystallized repeatedly; a pure, crystallized compound was obtained and designated "924".
[^3H]-thymidine was added for the last 14 hours of culture. Each concentration was run in quadruplicate (4 times) and the results for each concentration averaged to provide a mean. The mean cpm x 10^3 values were combined and expressed as a percent of T cell inhibition.

Solubility of 924 = assay type: physicochemical; conditions: ethanol and chloroform
Method: The dried woody skinned part of the root of TwHF was extracted with ethanol. The solution was concentrated at reduced pressure, and the residue was dissolved in ethyl acetate. This solution was passed through Al2O3 with ethanol as an eluent. The eluate was evaporated and the residue chromatographed on silica gel with chloroform, chloroform-ether and ethyl acetate as successive eluent. The fractions eluted with chloroform-ether were purified on a preparative HPLC column packed with Nova-Pak C18 and equipped with a 214 detector. Methanol-water was the mobile phase. A fraction having positive reaction to Kedde reagent was collected and extracted with chloroform. The chloroform solution was evaporated to dryness and the residue crystallized in dichloromethane-hexane to yield 924.

T cells = assay: Antigen (SK)-induced T cell proliferation (wilforonide); assay type: cell-based
Method: T cells were cultured with or without SK (1 ng/ml) or SK + IL-2 (50 u/ml) or SK + PMA (0.2 ng/ml) in the presence or absence of the following concentrations of wilforonide: 10 ng/ml, 50 ng/ml, 100 ng/ml, 500 ng/ml or 1,000 ng/ml. The cells were allowed to culture for five days. The cultures were pulsed with [^3H]-thymidine for the last 24 hours of culture. […] ID50 were calculated based on the regression formula by using the fx-3600 calculator. T cells cultured with SK or SK + IL-2 or SK + PMA gave cpm of 1.87 x 10^3, 4.99 x 10^3 and 6.67 x 10^3, respectively.

IDH4 cells = assay: Dexamethasone dependent growth of IDH4 cells (3H-thymidine); assay type: cell-based, human; conditions: for [3H]-thymidine incorporation of IDH4 cells: without stimulation 16,391; for dexamethasone dependent growth of IDH4 cells: 72 hours
Method: IDH4 cells, that express endogenous glucocorticoid receptors, were produced by transfecting human fibroblasts with a plasmid containing the MMTV-long terminal repeat driving the SV40 large T antigen. Since extended growth of these cells is dependent on expression of the large T antigen, these cells require exogenous glucocorticoid to maintain proliferation.
[^3H]-Thymidine was present for the last 16 h. Data represent the mean % inhibition of [^3H]-thymidine incorporation of three replicate determinations of three separate experiments.

cyclooxygenase 2 (COX-2) = assay: LPS (endotoxin) induced PGE2 production by monocytes; assay type: cell-based, human; conditions: LPS 10 µg/ml, 18 hours
Method: After 18 hours of incubation, cell-free supernatants were collected and assayed for PGE2 content with a radioimmunoassay kit (Amersham), as described by the manufacturer. […] Human monocytes produce prostaglandinE2 (PGE2) when stimulated with bacterial endotoxin.

human GR = biological target: T1, human GR (Homo sapiens, UniProt P04150); assay: GR mediated gene activation, MMTV-luciferase in COS-7 cells, with dexamethasone; assay type: cell-based; conditions: for GR-mediated activation of target gene (MMTV-luciferase): dexamethasone-induced
T1 construct: host or cells: COS-7
T1 sequence (P04150 1-777): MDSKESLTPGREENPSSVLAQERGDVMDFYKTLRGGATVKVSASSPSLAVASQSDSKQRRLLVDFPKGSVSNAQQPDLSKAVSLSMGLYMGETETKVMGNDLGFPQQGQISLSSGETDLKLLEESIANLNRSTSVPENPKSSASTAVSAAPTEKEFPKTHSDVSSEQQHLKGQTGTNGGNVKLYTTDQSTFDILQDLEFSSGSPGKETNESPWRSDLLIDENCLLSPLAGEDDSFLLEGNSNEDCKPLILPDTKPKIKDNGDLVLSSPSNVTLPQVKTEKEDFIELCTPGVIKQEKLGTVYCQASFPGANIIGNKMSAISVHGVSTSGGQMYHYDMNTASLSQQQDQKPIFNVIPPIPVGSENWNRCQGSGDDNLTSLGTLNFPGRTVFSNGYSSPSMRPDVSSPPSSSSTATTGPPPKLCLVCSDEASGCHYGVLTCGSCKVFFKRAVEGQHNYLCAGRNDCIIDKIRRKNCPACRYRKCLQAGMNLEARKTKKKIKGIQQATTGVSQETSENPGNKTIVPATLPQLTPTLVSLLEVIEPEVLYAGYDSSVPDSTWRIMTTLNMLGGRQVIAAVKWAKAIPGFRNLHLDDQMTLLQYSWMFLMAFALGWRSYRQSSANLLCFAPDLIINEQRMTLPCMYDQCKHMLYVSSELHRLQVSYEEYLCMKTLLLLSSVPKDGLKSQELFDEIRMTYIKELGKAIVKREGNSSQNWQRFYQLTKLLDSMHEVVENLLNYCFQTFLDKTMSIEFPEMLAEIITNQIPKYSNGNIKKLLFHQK
Method: Cell transfections and assays of GR mediated gene activation. COS-7 cells were maintained in culture in DMEM-10% bovine calf serum. […] Cells were plated at 10^6 cells per 10 cm plate. Twenty-four hours later, the cells were transfected with 500 ng pRShGrα, a GR expression vector (obtained from the Salk Institute, La Jolla, CA) and 10 µg of pMMTV-luciferase, a synthetic reporter gene. However, other expression vectors and synthetic reporter genes available to those of skill in the art may be used for transfection. The vector pMMTV-luciferase contains the luciferase gene under regulatory control of glucocorticoid-inducible elements in the MMTV-long terminal repeat. Cells were transfected using the calcium-phosphate precipitation technique (mammalian transfection kit, Stratagene, La Jolla, CA). […] Twenty-four hours later, the cells were washed, harvested, and lysates prepared by three cycles of freeze/thawing. The lysates were cleared by centrifugation at 12,000 x g for 5 minutes; aliquots were assayed for protein content and equal amounts of proteins were used for luciferase assays.
COS-7 cells were transfected with a human GR expression vector and the MMTV-luciferase reporter gene construct. A parallel set of plates was transfected with the constitutively active RSV-luciferase construct. […] Cells were lysed after 24 hours and assayed for luciferase activity.

U937 cells = assay: PGE2 production by LPS-activated U937 cells; assay type: cell-based, human
Text: This reflected marked suppression of the induction ofmRNA for cycloxygenase -2 (COX-2). […] This may contribute to its capacity to suppress autoimmune and inflammatory diseases.

in vitro = assay type: cell-based
Method: The cells were assayed for cell viability by using a cytoflowmeter (FACSCAN) after the cells were stained with propidium iodine. […]

SMILES: C[C@]12CCC3=C(COC3=O)[C@@H]1CCC(=O)C2 (relative stereo) [wilforonide, naphtho-[1,2-c] furan-3,7(1H,5H)-dione, 4,5a,6,8,9,9a-hexahydro-5a-methyl-(5aR-trans)-]
- ID50, PHA-induced IL-2 production (IL-2): 0.04211 µg/mL (≈ 0.191 µM)
- IL-2R expression by PHA-activated T cells (IL-2R): did not affect
- viability of PHA-stimulated T cells (PHA-stimulated T cells [1]; 1 ng/ml up to 1000 ng/ml): did not affect
- cell viability (PHA-stimulated T cells [1]; 1,000 ng/ml): 35 % of control
- ID50, PHA-induced T cell proliferation (PHA-stimulated T cells [2]): 0.3913 µg/mL (≈ 1.78 µM)
- cpm x 10^3 (experiments 1.-4.) (PHA-stimulated T cells [2]; Wilforonide 50 ng/ml): 57.0 cpm x 10^3
- solubility (Solubility of 924): soluble
- ID50, antigen-induced T cell proliferation (T cells; SK): 0.12712 µg/mL (≈ 0.577 µM)
- ID50, antigen-induced T cell proliferation (T cells; SK+IL-2): 0.476 µg/mL (≈ 2.16 µM)
- ID50, antigen-induced T cell proliferation (T cells; SK+PMA): 0.613 µg/mL (≈ 2.78 µM)

SMILES: C[C@@H]1C[C@H]2[C@@H]3CCC4=CC(=O)C=C[C@]4(C)[C@@]3(F)[C@@H](O)C[C@]2(C)[C@@]1(O)C(=O)CO [dexamethasone]
- [3H]-thymidine incorporation of IDH4 cells (IDH4 cells; dexamethasone 1 nM): 35,554 cpm
- [3H]-thymidine incorporation of IDH4 cells (IDH4 cells; dexamethasone 10 nM): 52,937 cpm
- [3H]-thymidine incorporation of IDH4 cells (IDH4 cells; dexamethasone 100 nM): 105,357 cpm
- [3H]-thymidine incorporation of IDH4 cells (IDH4 cells; dexamethasone 1,000 nM): 96,677 cpm

SMILES: CC(C)[C@]12O[C@H]1[C@@H]1O[C@]13[C@]1(O[C@H]1C[C@H]1C4=C(C(=O)OC4)[C@@H](O)C[C@@]13C)[C@@H]2O [tripdiolide]
- LPS / endotoxin induced PGE2 production by monocytes (cyclooxygenase 2 (COX-2)): inhibited
- GR-mediated activation of target gene (MMTV-luciferase) (human GR): inhibited
- dexamethasone dependent growth of IDH4 cells (IDH4 cells): inhibited
- PGE2 production by LPS-activated U937 cells that do not express COX-2 (U937 cells): had effect

SMILES: CC(C)[C@]12O[C@H]1[C@@H]1O[C@]13[C@]1(O[C@H]1C[C@H]1C4=C(CC[C@@]13C)C(=O)OC4)[C@@H]2O [triptolide]
- more potent at inhibition of MMTV-luciferase induction than at binding inhibition (human GR; compared with GR ligand binding inhibition): more than an order of magnitude
- GR-mediated activation of target gene (MMTV-luciferase) (human GR): inhibited
- viability at 72 hr, 0.1 ng/ml (in vitro): 91.7%
- viability at 72 hr, 10 ng/ml (in vitro): 35.8%

SMILES: CC(C)c1ccc2c(c1O)CC[C@H]1C3=C(CC[C@]21C)C(=O)OC3 [triptophenolide]
- GR-mediated activation of target gene (MMTV-luciferase) (human GR): far less potent
- dexamethasone dependent growth of IDH4 cells (IDH4 cells): less active
